{"source": "patent US20180104059A1", "about": "“Delivery of Therapy to Living Tissue” (President and Fellows of Harvard College, priority 2015, published 2018)", "key": {"[1]": {"test_system": "canine model of myocardial infarction", "conditions": "ONO1301 alone or in combination with a VRD; cited from earlier work"}, "[2]": {"conditions": "in vivo; cited from earlier work"}, "[3]": {"test": "Delivery of fluorescently tagged protein via thericardium port versus intraperitoneal, fluorescence at target site", "assay_type": "in vivo, rat", "conditions": "after three hours", "source_text": "A bovine serum albumin solution tagged with a fluorescent molecule (Vivotag 800) was delivered via the port 18. […] The bioluminescence from the dose is shown for intraperitoneal delivery (at left) and for direct delivery via the thericardium 10 is shown in FIG. 28."}}}
{"compound": "O=C(O)COc1cccc2c1CCC=C2CCO/N=C(\\c1ccccc1)c1cccnc1", "note": "[ONO1301]", "values": [{"measurement": "HGF, VEGF and SDF-1 in the myocardium", "setting": "[1]", "result": "upregulation"}, {"measurement": "myocardial vascularization", "setting": "[1]", "result": "increase in myocardial vascularization"}]}
{"compound": "CC(C)NCC(O)COc1ccc(CC(N)=O)cc1", "note": "(centres unmarked) [atenolol]", "values": [{"measurement": "efficacy with intrapericardial delivery compared to IV administration", "setting": "[2]", "result": "improved the efficacy"}]}
{"compound": "bovine serum albumin: bovine serum albumin solution tagged with a fluorescent molecule (Vivotag 800), model protein", "values": [{"measurement": "protein at the target site (fluorescence)", "setting": "[3]; delivered via the port", "result": "sustained concentration"}, {"measurement": "protein at the target site (fluorescence)", "setting": "[3]; same amount injected intraperitoneally", "result": "undetectable quantity"}]}
